Experimental data published in US7341850B2, “Human LXRα variants” (Wyeth, priority 2003, dated 2008).

Assays:
LXRα-64 mRNA = assay: Regulation of LXRα-64 mRNA expression in differentiated THP-1 cells (real-time RT-PCR); assay type: cell-based, human; conditions: THP-1 cells differentiated with 150 nM phorbol ester for 3 days; 10 μM T0901317, 10 μM GW 3965, 10 μM Ciglitazone or 1 μM 9RA; vs vehicle; FIG. 8A
Description: Experiments were performed to determine whether agonists of wild type LXRα could also regulate the expression of LXRα variants. In these experiments, THP-1 cells were obtained from the American Type Culture Collection (ATCC) and cultured in RPMI medium containing 10% fetal bovine serum (FBS). For gene expression analysis in differentiated THP-1 cells, the THP1 cells were incubated in RPMI medium supplemented with 10% lipoprotein-deficient serum (LPDS) (Intracel Corp, Rockville, Md.) and treated with 150 nM phorbol ester for 3 days followed by treatment with LXR, RXR, or Peroxisome Proliferator-activated Receptor γ (PPARγ) agonist compounds, specifically with vehicle only (control), 10 μM T0901317, 10 μM GW 3965, 10 μM Ciglitazone, or 1 μM 9RA.

LXRα-42 mRNA = assay: Regulation of LXRα-42 mRNA expression in differentiated THP-1 cells (real-time RT-PCR); assay type: cell-based, human; conditions: THP-1 cells differentiated with 150 nM phorbol ester for 3 days; 10 μM T0901317, 10 μM GW 3965, 10 μM Ciglitazone or 1 μM 9RA; vs vehicle; FIG. 8B
Description: Each amplification mixture (50 μL) contained 50 ng of cDNA, 400 nM forward primer (SEQ ID NO:11), 400 nM reverse primer (SEQ ID NO:12), 200 nM dual-labeled fluorogenic probe (SEQ ID NO:13) (Applied Biosystems), 5.5 mM MgCl2, and 1.25 units Gold Taq (Applied Biosystems). The primers amplify a portion of the LXRα sequences that is about 80 nucleotides in length. The PCR thermocycling parameters were 95° C. for 10 minutes, and 40 cycles at 95° C. for 15 seconds, and 60° C. for 1 minute. Together with the samples and no-template controls, a serially diluted cDNA standard was analyzed in parallel. All samples were analyzed for human glyceraldehyde-3-phosphate dehydrogenase (GAPDH) expression in parallel in the same run using probe and primers from predeveloped assays for GAPDH (Applied Biosystems). All of the target gene expression was normalized to the expression of GAPDH. Quantitative analysis was performed using the threshold procedure, following the manufacturer's protocol (Perkin-Elmer), and relative amounts were calculated from the standard curve.
Experiments were performed to determine whether agonists of wild type LXRα could also regulate the expression of LXRα variants. In these experiments, THP-1 cells were obtained from the American Type Culture Collection (ATCC) and cultured in RPMI medium containing 10% fetal bovine serum (FBS). For gene expression analysis in differentiated THP-1 cells, the THP1 cells were incubated in RPMI medium supplemented with 10% lipoprotein-deficient serum (LPDS) (Intracel Corp, Rockville, Md.) and treated with 150 nM phorbol ester for 3 days followed by treatment with LXR, RXR, or Peroxisome Proliferator-activated Receptor γ (PPARγ) agonist compounds, specifically with vehicle only (control), 10 μM T0901317, 10 μM GW 3965, 10 μM Ciglitazone, or 1 μM 9RA. The primers and TaqMan probe for the real-time RT-PCR was described as in Example 4.

[1] = system: SREBP-c1 (an LXR target gene); assay: SREBP-1C expression in transfected HEK 293 cells (real-time quantitative PCR); assay type: cell-based; conditions: cotransfected with human RXRα, TO901317 and/or 9RA, 48 hours, compared to wild type LXRα with RXRα or empty vector with RXRα, FIG. 11
Description: (§1) In these experiments, coding regions of human LXRα, RXRα, and the LXRα variant (LXRα-64) were amplified by RT-PCR. The PCR products were subcloned into pCMV/myc/nuc expression vectors (Invitrogen, Carlsbad, Calif.) and used in the experiments described infra.
(§2) Expression experiments were conducted in HEK 293 cells that were propagated in Dulbecco's modified Eagle's medium (DMEM) containing 10% FBS. The cultured cells were transfected with either the expression vector containing a sequence encoding LXRα (wild type) or an expression vector encoding LXRα-64. All samples were co-transfected with an expression vector encoding an RXRα sequence. Transfections were performed in triplicate in 24 well plates using the Lipofectamine 2000 (Invitrogen, Carlsbad, Calif.). Each well was transfected with 200 ng of the LXRα expression vector (LXRα), the LXRα-64 expression vector (L64), or control plasmid (pCMV) along with 200 ng of human RXRα expression vector (RXRα). Additions to each well were adjusted to contain constant amounts of DNA and of pCMV expression vector. […] The levels of gene expression were determined with Real-time quantitative PCR assays using an Applied Biosystems 7700 sequence detector.

[2] = system: pGL3-LXRα-Luc reporter (LXR response element of LXRα promoter); assay: LXRα promoter (LXRE) luciferase reporter gene assay in transfected HEK 293 cells; assay type: cell-based, human; conditions: variant co-transfected with hRXRα and reporter, 10 μM T0901317, 24 hours, compared with co-transfected native LXRα, FIG. 9
Source text: Human LXRα promoter (SEQ ID NO:14) was amplified by PCR using information from the published LXRα genomic structure and sequence (GenBank accession no. AC090589. A fragment spanning from -2660 to -2363 (relative to the transcription start site from exon 1) of LXRα promoter which contains the LXR response element ([NT] ID NO:20) ([…] et al. 2001, Mol. Cell. Biol. 21, 7558-7568 and Whitney et al., 2001, J. Biol. Chem. 276, 43509-43515) of LXRα was subcloned into pGL3 basic plasmid to create pGL-3-LXRα-Luc. The GenBank accession number of the LXRα “native” sequence used as a reference for the experiments and analysis disclosed herein is Genbank accession number for human LXRα is BC008819. Coding regions of human LXRα, and RXRα (GenBank accession number BC007925) were amplified by RT-PCR according to the sequences in GenBank and subcloned into pCMV/myc/nuc expression vectors (Invitrogen, Carlsbad, Calif.). The new LXRα-[…] coding region was subcloned into pCMV/myc/nuc expression vectors. HEK 293 cells were grown in Dulbecco's modified Eagle's medium (DMEM) containing 10% FBS. Transfections were performed in triplicate in 24 well plates using Lipofectamine 2000 (Invitrogen). […] The cells were harvested, analyzed, and the extracts were assayed for luciferase and β-galactosidase activity in a microplate luminometer/photometer reader (Lucy-1; Anthos, Salzburg, Austria). […]

ABCA1 = ABCA1 expression in transfected HEK 293 cells (real-time quantitative PCR); assay type: cell-based, human; conditions: cotransfected with RXRα, FIG. 12
Description: as §1, §2

Row | Molecule | expression of LXRα-64 mRNA (LXRα-64 mRNA) | expression of LXRα-42 mRNA (LXRα-42 mRNA) | basal, LXR ligand-dependent, and LXR+RXR ligand-dependent induction of SREBP-c1 expression [1] | LXR ligand-dependent activation of reporter gene [2] | LXR as well as LXR+RXR-ligand dependent induction of ABCA1 expression (ABCA1; TO901317 and/or 9RA, 48 hours, compared to native LXRα and RXRα or empty vector with RXRα) | basal expression of ABCA1 (ABCA1; no ligand)
1 | CC1=C(/C=C/C(C)=C\C=C\C(C)=C\C(=O)O)C(C)(C)CCC1 [9-cis retinoic acid] | increased | increased | – | – | – | –
2 | O=C(O)Cc1cccc(OCCCN(Cc2cccc(C(F)(F)F)c2Cl)CC(c2ccccc2)c2ccccc2)c1 [GW3965, 3-(3-(2-chloro-3-trifluoromethylbenzyl-2,2-diphenylethylamino)propoxy)phenylacetic acid] | increased | increased | – | – | – | –
3 | O=S(=O)(c1ccccc1)N(CC(F)(F)F)c1ccc(C(O)(C(F)(F)F)C(F)(F)F)cc1 [T0901317, N-(2,2,2,-trifluoro-ethyl)-n-[4-(2,2,2,-trifluoro-1-hydroxy-1-trifluoromethyl-ethyl)-phenyl]-benzenesulfonamide] | increased | increased | – | – | – | –
4 | LXRα-64: human LXRα splice variant with an extra 64 amino acids in its ligand binding domain (SEQ ID NO:4) (protein, listed as Homo sapiens) MSLWLGAPVPDIPPDSAVELWKPGAQDASSQAQGGSSCILREEARMPHSAGGTAGVGLEAAEPTALLTRAEPPSEPTEIRPQKRKKGPAPKMLGNELCSVCGDKASGFHYNVLSCEGCKGFFRRSVIKGAHYICHSGGHCPMDTYMRRKCQECRLRKCRQAGMREECVLSEEQIRLKKLKRQEEEQAHATSLPPRRSSPPQILPQLSPEQLGMIEKLVAAQQQCNRRSFSDRLRVTPWPMAPDPHSREARQQRFAHFTELAIVSVQEIVDFAKQLPGFLQLSREDQIALLKTSAIEVAGEGQGMKGEAEWDYLWEGPPDIELGEPNLLGSRDEENRPPWKRPCSKTSPPSPRLRFAACVQVMLLETSRRYNPGSESITFLKDFSYNREDFAKAGLQVEFINPIFEFSRAMNELQLNDAEFALLIAISIFSADRPNVQDQLQVERLQHTYVEALHAYVSIHHPHDRLMFPRMLMKLVSLRTLSSVHSEQVFALRLQDKKLPPLLSEIWDVHE | – | – | sharply decreased | sharply decreased | less | not affected
